Reference: US9012489B2, “Phenyl-3-aza-bicyclo[3.1.0]hex-3-yl-methanones and the use thereof as medicament” (Boehringer Ingelheim International GmbH, priority 2011, dated 2015)

The compounds below were run against T1, GlyT1 transporter (Homo sapiens, UniProt P48067) (assay: GlyT1 assay: 3H-glycine uptake into SK-N-MC cells (Cytostar-T format)). Settings: glycine uptake in human SK-N-MC cells endogenously expressing GlyT1; 500 nM glycine, 1% DMSO, signal recorded over 60 min.
T1 construct: endogenously expressing the GlyT1 transporter; host or cells: SK-N-MC human neuroblastoma cells
T1 sequence (P48067 1-706): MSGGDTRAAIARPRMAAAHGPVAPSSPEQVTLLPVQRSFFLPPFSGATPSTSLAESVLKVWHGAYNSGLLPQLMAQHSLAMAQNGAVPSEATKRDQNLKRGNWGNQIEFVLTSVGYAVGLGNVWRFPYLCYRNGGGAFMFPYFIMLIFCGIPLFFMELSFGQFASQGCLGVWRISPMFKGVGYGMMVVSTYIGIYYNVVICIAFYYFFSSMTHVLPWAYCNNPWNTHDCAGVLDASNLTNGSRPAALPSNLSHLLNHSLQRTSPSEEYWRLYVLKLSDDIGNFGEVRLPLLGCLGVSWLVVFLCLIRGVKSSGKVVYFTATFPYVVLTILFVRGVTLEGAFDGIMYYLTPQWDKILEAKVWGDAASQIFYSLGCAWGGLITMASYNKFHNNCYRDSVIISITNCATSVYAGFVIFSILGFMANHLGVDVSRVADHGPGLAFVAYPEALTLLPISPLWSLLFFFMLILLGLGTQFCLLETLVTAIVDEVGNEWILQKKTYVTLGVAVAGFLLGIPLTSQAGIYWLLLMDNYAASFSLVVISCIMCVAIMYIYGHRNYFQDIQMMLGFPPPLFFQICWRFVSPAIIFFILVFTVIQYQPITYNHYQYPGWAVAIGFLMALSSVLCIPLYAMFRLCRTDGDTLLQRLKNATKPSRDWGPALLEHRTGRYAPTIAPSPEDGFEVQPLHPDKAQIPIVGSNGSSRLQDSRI
Type: cell-based
How it was run: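 Endogenous GlyT1 in human SK-N-MC cells, confluent after 16-18 h, in HBSS with 5 mM alanine. Compounds preincubated about 5-10 min, then 500 nM glycine (half ³H) added, 1% DMSO. Scintillation-proximity uptake recorded kinetically over 60 min; IC50 from linear-range slopes over 8 concentrations, nonspecific uptake defined with 10 μM RG-1678.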

| Compound | IC50 |
| --- | --- |
| CC(C)COc1ccc(S(C)(=O)=O)cc1C(=O)N1CC2CC2(c2noc(C(F)(F)F)n2)C1 (racemic) [Example 95, (2-Isobutoxy-5-methxnesulfonyl-phenyl)-[1-(5-trifluoromethyl-[1,2,4]oxadiazol-3-yl)-3-aza-bicyclo[3.10]hex-3-yl]-methanone] | 131 nM |
| C[C@@H](Oc1ccc(S(C)(=O)=O)cc1C(=O)N1CC2CC2(c2cc(C(F)(F)F)on2)C1)C(F)(F)F (single isomer, unassigned) [Example 51, [5-Methanesulfonyl-2-(2,2,2-trifluoro-1-methyl-ethoxy)-phenyl]-[1-(5-trifluoromethyl-isoxazol-3-yl)-3-aza-bicyclo[3.1.0]hex-3-yl]-methanone] | 461 nM |
| CCS(=O)(=O)c1ccc(O[C@H](C)C(F)(F)F)c(C(=O)N2CC3CC3(c3noc(C(F)(F)F)n3)C2)c1 (single isomer, unassigned) [Example 94, [5-Ethanesulfonyl-2-(2,2,2-trifluoro-1-methyl-ethoxy)-phenyl]-[1-(5-trifluoromethyl-[1,2,4]oxadiazol-3-yl)-3-aza-bicyclo[3.1.0]hex-3-yl]-methanone] | 2910 nM |
| C[C@H](Oc1ccc(S(C)(=O)=O)cc1C(=O)N1CC2CC2(c2noc(C3CC3)n2)C1)C(F)(F)F (single isomer, unassigned) [Example 11, [1-(5-Cyclopropyl-[1,2,4]oxadiazol-3-yl)-3-aza-bicyclo[3.1.0]hex-3-yl]-[5-methanesulfonyl-2-(2,2,2-trifluoro-1-methyl-ethoxy)-phenyl]-methanone] | 175 nM |
| C[C@@H](Oc1ccc(S(C)(=O)=O)cc1C(=O)N1CC2CC2(c2csc(C(F)(F)F)n2)C1)C(F)(F)F (single isomer, unassigned) [Example 31, [5-Methanesulfonyl-2-(2,2,2-trifluoro-1-methyl-ethoxy)-phenyl]-[1-(2-trifluoromethyl-thiazol-4-yl)-3-aza-bicyclo[3.1.0]hex-3-yl]-methanone] | 1010 nM |
| C[C@@H](Oc1ccc(S(C)(=O)=O)cc1C(=O)N1CC2CC2(c2nnc(C3(C(F)(F)F)CC3)o2)C1)C(F)(F)F (single isomer, unassigned) [Example 150, [5-Methanesulfonyl-2-(2,2,2-trifluoro-1-methyl-ethoxy)-phenyl]-{1-[5-(1-trifluoromethyl-cyclopropyl)-[1,3,4]oxadiazol-2-yl]-3-aza-bicyclo[3.1.0]hex-3-yl}-methanone] | 232 nM |
| C[C@H](Oc1ccc(S(C)(=O)=O)cc1C(=O)N1CC2CC2(c2csc(C(F)(F)F)n2)C1)C(F)(F)F (single isomer, unassigned) [Example 28, [5-Methanesulfonyl-2-(2,2,2-trifluoro-1-methyl-ethoxy)-phenyl]-[1-(2-trifluoromethyl-thiazol-4-yl)-3-aza-bicyclo[3.1.0]hex-3-yl]-methanone] | 1440 nM |
| C[C@@H](Oc1ccc(S(C)(=O)=O)cc1C(=O)N1CC2CC2(c2nc(C(F)(F)F)co2)C1)C(F)(F)F (single isomer, unassigned) [Example 114, [5-Methanesulfonyl-2-(2,2,2-trifluoro-1-methyl-ethoxy)-phenyl]-[1-(4-trifluoromethyl-oxazol-2-yl)-3-aza-bicyclo[3.1.0]hex-3-yl]-methanone] | 171 nM |
| C[C@@H](Oc1ccc(S(C)(=O)=O)cc1C(=O)N1CC2CC2(c2nccc(C(F)(F)F)n2)C1)C(F)(F)F (single isomer, unassigned) [Example 18, [5-Methanesulfonyl-2-(2,2,2-trifluoro-1-methyl-ethoxy)-phenyl]-[1-(4-trifluoromethyl-pyrimidin-2-yl)-3-aza-bicyclo[3.1.0]hex-3-yl]-methanone] | 106 nM |

These reach a lower IC50. Values come first.

| IC50 | Compound |
| --- | --- |
| 36 nM | C[C@H](Oc1ccc(S(C)(=O)=O)cc1C(=O)N1CC2CC2(c2nc(C3(C(F)(F)F)CC3)no2)C1)C(F)(F)F (mixture of isomers) [Example 155, [5-Methanesulfonyl-2-(2,2,2-trifluoro-1-methyl-ethoxy)-phenyl]-{1-[3-(1-trifluoromethyl-cyclopropyl)-[1,2,4]oxadiazol-5-yl]-3-aza-bicyclo[3.1.0]hex-3-yl}-methanone] |
| 18 nM | C[C@H](Oc1ccc(S(C)(=O)=O)cc1C(=O)N1CC2CC2(c2noc(C(C)(C)C(F)(F)F)n2)C1)C(F)(F)F (mixture of isomers) [Example 12, [5-Methanesulfonyl-2-(2,2,2-trifluoro-1-methyl-ethoxy)-phenyl]-{1-[5-(2,2,2-trifluoro-1,1-dimethyl-ethyl)-[1,2,4]oxadiazol-3-yl]-3-aza-bicyclo[3.1.0]hex-3-yl}-methanone] |
| 9 nM | Cc1c(C23CC2CN(C(=O)c2cc(S(C)(=O)=O)ccc2O[C@H](C)C(F)(F)F)C3)noc1C(F)(F)F (single isomer, unassigned) [Example 161] |
| 6 nM | C[C@@H](Oc1ccc(S(C)(=O)=O)cc1C(=O)N1CC2CC2(c2nccc(C3CC3)n2)C1)C(F)(F)F (mixture of isomers) [Example 79, [1-(4-Cyclopropyl-pyrimidin-2-yl)-3-aza-bicyclo[3.1.0]hex-3-yl]-[5-methanesulfonyl-2-(2,2,2-trifluoro-1-methyl-ethoxy)-phenyl]-methanone] |
| 5 nM | C[C@@H](Oc1ccc(S(C)(=O)=O)cc1C(=O)N1CC2CC2(c2csc(C(F)(F)F)n2)C1)C(F)(F)F (single isomer, unassigned) [Example 30, [5-Methanesulfonyl-2-(2,2,2-trifluoro-1-methyl-ethoxy)-phenyl]-[1-(2-trifluoromethyl-thiazol-4-yl)-3-aza-bicyclo[3.1.0]hex-3-yl]-methanone] |
| 67 nM | C[C@H](Oc1ccc(S(C)(=O)=O)cc1C(=O)N1CC2CC2(c2ncccn2)C1)C(F)(F)F (mixture of isomers) [Example 14, [5-Methanesulfonyl-2-(2,2,2-trifluoro-1-methyl-ethoxy)-phenyl]-(1-pyrimidin-2-yl-3-aza-bicyclo[3.1.0]hex-3-yl)-methanone] |
| 10 nM | C[C@H](Oc1ccc(S(C)(=O)=O)cc1C(=O)N1CC2CC2(c2nccc(C(F)(F)F)n2)C1)C(F)(F)F (single isomer, unassigned) [Example 16, [5-Methanesulfonyl-2-(2,2,2-trifluoro-1-methyl-ethoxy)-phenyl]-[1-(4-trifluoromethyl-pyrimidin-2-yl)-3-aza-bicyclo[3.1.0]hex-3-yl]-methanone] |
| 16.5 nM | Cc1nc(C23CC2CN(C(=O)c2cc(S(C)(=O)=O)ccc2O[C@@H](C)C(F)(F)F)C3)no1 (mixture of isomers) [Example 6, [5-Methanesulfonyl-2-(2,2,2-trifluoro-1-methyl-ethoxy)-phenyl]-[1-(5-methyl-[1,2,4]oxadiazol-3-yl)-3-aza-bicyclo[3.1.0]hex-3-yl]-methanone] |
